We go through two compounds from patent US8067175B2, “Methods and compositions for detecting a drug resistant EGFR mutant” (priority 2005, dated 2011).

For this data set, the system named is lung adenocarcinoma. Nature of the data set: Case reports of patients treated with gefitinib or erlotinib.

SMILES strings stand for the structures.

For `C#Cc1cccc(Nc2ncnc3cc(OCCOC)c(OCCOC)cc23)c1` [erlotinib], the “CT scan response of bilateral nodules” value (patient 2, 150 mg daily, 4 mo after treatment) is “markedly reduced in number and size”. Moreover, for the setting “patient 2, after 14 mo of therapy, dose decreased to 100 mg daily”, the “adverse effect leading to dose decrease” value is on record as “fatigue”. Under “patient 2, after 25 mo of treatment”, the disease outcome is “the disease progressed within the lung”.
For `COc1cc2ncnc(Nc3ccc(F)c(Cl)c3)c2cc1OCCCN1CCOCC1` [gefitinib], the chest radiograph response entry (patient 1, 250 mg daily, 2 wk after start) is “dramatic improvement”. The chest radiograph outcome (patient 1, nine mo later) was “progression of disease”. Also, the “disease outcome on adjuvant treatment” value (patient 3, after three mo) is reported as “developed a new left-sided malignant pleural effusion”.
